Patent US7718804B2, “Quaternary nitrogen heterocyclic compounds for detecting aqueous monosaccharides in physiological fluids” (University of Maryland Biotechnology Institute, priority 2003, dated 2010)
Where two headings read alike, the source gives them in different places.

How the values were obtained:
[1] = Fluorescence intensity response to fructose in solution
Protocol: (§1) All steady state fluorescence measurements were performed in a 4×1×1 cm fluorometric plastic cuvette, using a Varian Cary Eclipse fluorometer, and all absorption measurements were performed using a Varian UV/VIS 50 spectrophotometer.
The emission spectra of o-BMQBA in the presence of varying concentrations of fructose and glucose are shown in FIG. 4A and FIG. 4B, respectively. It can be seen that the fluorescence intensity of o-BMQBA in pH 7.5 phosphate buffer is inversely proportional to the glucose and fructose concentrations. […] A plot of the intensity ratio, I′/I, at λ=427 nm, where I′ and I represent the fluorescence intensities in the absence and presence of sugar, respectively, is shown in FIG. 4C. […] It is noted that the concentration of fructose in blood is ˜10 times lower than glucose, a relationship which is also thought to occur in tears (N. Dicesare, et. al., J. Bio. Med. Opt., 7(4), 538-545 (2002)).
The intensity ratio for o-BMQBA in buffered media (pH 5-8) at various glucose concentrations is shown in FIG. 8A, wherein I′ corresponds to the intensity in the absence of glucose and I corresponds to the intensity at the specified glucose concentration. In addition, the intensity ratio for o-BMQBA in buffered media (pH 5-8) at low glucose concentrations, typical of those found in tears, is shown in FIG. 8B. Correspondingly, the intensity ratio for o-BMQBA in buffered media (pH 5-8) at various fructose concentrations is shown in FIGS. 9A and 9B.
Because physiological fluids contain chloride ions, which are well known quenchers of quinolinium fluorescence (Geddes, C. D., Meas. Sci. Technol., 12(9), R53-R88 (2001); Geddes, C. D., et al., J. Heterocyclic Chem., 36(4), 949-951 (1999); Geddes, C. D., et al., Anal. Biochem., 293(1), 60-66 (2001)), the fluorescence intensity and intensity ratios of o-BMQBA in pH 7.5 buffer having 100 mM NaCl with varying quantities of fructose or glucose was measured and shown in FIGS. 10 and 11, respectively, where I′ corresponds to the intensity in the absence of fructose and I corresponds to the intensity at the specified fructose concentration. It can be seen that although chloride quenched the intensity of the emission in the presence of fructose, the intensity ratio change for fructose is still significant, amounting to a 4-fold decrease in fluorescence intensity at 60 mM fructose (see FIG. 10B). The quenching effect was less significant at lower concentrations of fructose (see FIG. 10C) and for glucose concentrations, both high and low (see FIGS. 11B and 11C). This minimal quenching effect for BMQBA is supported by the calculated Stern-Volmer constants, KSV, for the BMQBA compounds in water, which were determined to be 44.0 M^−1, 20.0 M^−1, 17.0 M^−1 and 35.0 M^−1 for o-BMQBA, m-BMQBA, p-BMQBA and BMQ, respectively. These are small quenching constants that are readily accounted for using simple corrections in the fluorescence signal, as readily determined by one skilled in the art of fluorescence.
(§2) The intensity ratio at λ=450 nm for o-BMOQBA in buffered media (pH 5-8) at various glucose concentrations is shown in FIG. 16A, wherein I′ corresponds to the intensity in the absence of glucose and I corresponds to the intensity at the specified glucose concentration. In addition, the intensity ratio for o-BMOQBA in buffered media (pH 5-8) at low glucose concentrations, typical of those found in tears, is shown in FIG. 16B. Correspondingly, the intensity ratio for o-BMOQBA in buffered media (pH 5-8) at various fructose concentrations is shown in FIGS. 17A and 17B.
Each BAF was tested to determine the usefulness of these BAFs with regard to tear glucose sensing in a contact lens. Towards that end, both solution-based and doped contact lens-based measurements, the methods of which are described above, were performed and subsequently compared. […]

[2] = pKa from normalized fluorescence intensity versus pH, with and without 100 mM sugar; format: physicochemical
Excerpt: A normalized plot of intensity at 427 nm as a function of pH is shown in FIG. 6, wherein I is the emission intensity at the specified pH and Io is the initial emission intensity at pH 3.0. Though not to be bound by theory, it is likely that the change in fluorescence intensity relative to pH value is attributed to the change in hybridization of the boron atom with increasing pH. At low pH values, the boronic acid group is an electron-deficient Lewis acid that is sp^2-hybridized and thus is trigonal planar. As the pH increases, the anionic form of the boronic acid begins to form, which corresponds to a more electron rich sp^3-hybridized boron atom and an […] shape. The change in the geometry of the boron atom induces the fluorescence spectral changes of the molecular sensing moieties.
Based on previously reported pKa values for boronic acid compounds, these pKa values are the lowest reported for a phenyl boronic acid derivative. The quaternary nitrogen of the quinolinium moiety not only reduces the pKa of the compound, but also stabilizes the anionic boronate diester complex (represented by D in FIG. 1), which may explain the affinity of sugar for these novel compounds. Importantly, the large decrease in the pKa of the boronic acid-sugar complex relative to the uncomplexed boronic acid, allows for the quantitative detection of monosaccharides at or below physiological pH because substantial optical changes are observed.
A normalized plot of intensity at 450 nm as a function of pH is shown in FIG. 14, wherein normalized intensity is the emission intensity at the specified pH, I, relative to the initial emission intensity at pH 3.0, Io. As discussed with reference to o-BMQBA, the change in the geometry of the boron atom may explain the fluorescence spectral changes of the molecular sensing moieties.
Comparing the pKa values of previously reported boronic acid compounds relative to the novel BMOQBA isomers, these pKa values are relatively low. As discussed with reference to o-BMQBA, the lower pKa values can be attributed to the increased Lewis acidity of the boronate diester complex (represented by D in FIG. 1). Importantly, the large decrease in the pKa of the boronic acid-sugar complex relative to the uncomplexed boronic acid, allows for the quantitative detection of monosaccharides at or below physiological pH because substantial optical changes are observed.

[3] = Spectral properties in water (absorption, emission, quantum yield, lifetime); format: physicochemical; conditions: for φf (quantum yield): relative to SPQ (φf=0.53 in water)
Protocol: as §1
Time-solved intensity decays were measured using reverse start-stop time-correlated single-photon timing (TCSPC) with a Becker and Hickl Gmbh 630 SPC PC card and unamplified MCP-PMT. Vertically polarized excitation at ˜372 nm was obtained using a pulsed LED source (1 MHz repetition rate) and a dichroic sheet polarizer. The instrumental response function was ˜1.1 ns fwhm. The emission was collected at the magic angle (54.7°) using a long pass filter (Edmund Scientific) which cut-off the excitation wavelengths.
The intensity decays were analyzed in terms of the multi-exponential model:
[formula] where αi are the amplitudes and τi are the decay times, Σαi=1.0. The fractional contribution of each component to the steady-state intensity is given by:
The mean lifetime of the excited state is given by:
The values of αi and τi were determined by non-linear least squares impulse reconvolution with a goodness-of-fit χ^2R criterion.
A representative absorption and emission spectra for o-BMQBA in water is shown in FIG. 3B, which corresponds to all three isomers and BMQ. BMQBA has a strong absorption band at ˜320 nm, which can be assigned to n→π* transitions, and an excitation band at ˜427 nm, and as such, has a large Stokes shift of about 100 nm, which is ideal for fluorescence sensing. The quantum yield values of the BMQBA compounds in water relative to N-(3-sulfopropyl)-6-methoxyquinolinium (SPQ) (φf=0.53 in water) are shown in Table 1. The low quantum yields and relatively short lifetime of the BMQBA and BMQ molecules can be attributed to a photo-induced electron transfer, whereby the phenyl ring acts as the donor and the quinolinium moiety acts as the acceptor.
A representative absorption and emission spectra for o-BMOQBA in water is shown in FIG. 3A, which corresponds to all three isomers and BMOQ. BMOQBA has a strong absorption band at ˜345 nm, which can be assigned to n→π* transitions, and an excitation band at ˜450 nm, and as such, has a large Stokes shift of about 100 nm, which is ideal for fluorescence sensing. The quantum yield values of the BMOQBA compounds in water relative to N-(3-sulfopropyl)-6-methoxyquinolinium (SPQ) (φf=0.53 in water) are shown in Table 2. […] We can only speculate as to the quantum yield differences between the m-BMOQBA and p-BMOQBA compounds, which may be attributed to through-bond and through-space mechanisms.

[4] = Dissociation constant from fluorescence titration with fructose; format: binding; conditions: pH 7.5 phosphate buffer
Excerpt: (§3) Stability (KS (mM^−1) and dissociation (KD) constants were obtained by fitting the titration curves with sugar to the relation:
(§4) [formula] where Imin and Imax are initial (no sugar) and final (plateau) fluorescence intensities of the titration curves and KD=(1/KS).

[5] = Fluorescence intensity response to glucose in solution; conditions: for decrease in fluorescence intensity: 0.60 mM glucose, pH 6 to 7 range, buffered solution
Protocol: All steady state fluorescence measurements were performed in a 4×1×1 cm fluorometric plastic cuvette, using a Varian Cary Eclipse fluorometer, and all absorption measurements were performed using a Varian UV/VIS 50 spectrophotometer. […]
The emission spectra of o-BMOQBA in the presence of varying concentrations of glucose and fructose are shown in FIG. 12A and FIG. 12B, respectively. It can be seen that the fluorescence intensity of o-BMOQBA in pH 7.5 phosphate buffer is inversely proportional to the glucose and fructose concentrations. […] A plot of the intensity ratio, I′/I, at λ=450 nm, where I′ and I represent the fluorescence intensities in the absence and presence of sugar, respectively, is shown in FIG. 12C. […] Referring to FIG. 12C, there is a 2.8-fold change in intensity by the addition of 60 mM sugar.
as §2
Each BAF was tested to determine the usefulness of these BAFs with regard to tear glucose sensing in a contact lens. Towards that end, both solution-based and doped contact lens-based measurements, the methods of which are described above, were performed and subsequently compared.

[6] = Dissociation constant from fluorescence titration with glucose; format: binding; conditions: pH 7.5 phosphate buffer
Excerpt: as §3, §4

[7] = in water; cited from earlier work
[8] = Fluoride sensing by fluorescence
Excerpt: Moreover, because the quenching of fluorescence is not a selective process, any fluorophore quenched by chloride is also quenched by bromide and iodide to an even more substantial extent, allowing for the determination of bromide or iodide concentrations as well. Generally, fluorophores that are quenched by chloride are not quenched by fluoride, which is often attributed to the “heavy-atom effect” (Geddes, C. D., Meas. Sci. Technol., 12, R53 (2001); Lakowicz, J. R., Principles of Fluorescence Spectroscopy, 2nd ed., Kluwer/Academic Plenum Publishers, New York, 1997).

[9] = buffer with 100 mM fructose, 100 mM fructose, read-out: pKa (buffer + fructose)
[10] = buffer with 100 mM glucose, 100 mM glucose, read-out: pKa (buffer + glucose)
[11] = buffer without sugar, absence of sugar, read-out: pKa (buffer)

CN(C)c1ccc(/C=C/C=C/C(=O)c2ccc(B(O)O)cc2)cc1 [Chalc 2, 5-[4′-(dimethylamino)phenyl]-1-(4′-boronophenyl)-pent-2,4-dien-1-one]
increase in fluorescence emission ([1]; 100 mM fructose, pH 8.0, solution): 3 fold

COc1ccc2c(ccc[n+]2Cc2ccccc2B(O)O)c1.[Br-] [o-BMOQBA, N-(2-boronobenzyl)-6-methoxyquinolinium bromide]
pKa [2, 9]: 4.8 | pKa [2, 10]: 6.62 | pKa [2, 11]: 7.9 | λem (max) [3]: 450 nm | τf (mean lifetime) [3]: 26.7 ns | φf (quantum yield) [3]: 0.46 | Kd [4]: 0.65 mM | decrease in fluorescence intensity [5]: 5-10% | change in intensity (I′/I at 450 nm) ([5]; addition of 60 mM sugar, pH 7.5 phosphate buffer (FIG. 12C)): 2.8 fold | decrease in fluorescence intensity ([1]; 0.50 mM fructose, pH 6 to 7 range, buffered solution): 10-40% | Kd [6]: 49.5 mM

CN(C)c1ccc(/C=C/c2ccc(B(O)O)cc2)cc1 [DSTBA, 4′-dimethylaminostilbene-4-boronic acid]
ratiometric change in intensity ([5]; 60 mM glucose, pH 8.0 buffer/methanol (2:1)): 2 fold | ratiometric change in intensity ([1]; 60 mM fructose, pH 8.0 buffer/methanol (2:1)): 4.5 fold | blue shift of emission spectra ([1]; fructose 0 mM→100 mM, pH 8.0 buffer/methanol (2:1)): about 30 nm

COc1ccc2c(ccc[n+]2CCCS(=O)(=O)O)c1 [SPQ, N-(3-sulfopropyl)-6-methoxyquinolinium]
φf (quantum yield) of reference standard [7]: 0.53

Nc1ccc2c(ccc[n+]2Cc2ccccc2B(O)O)c1.[Br-] [BAQBA, N-(2-boronobenzyl)-6-aminoquinolinium bromide]
detectable fluoride concentration [8]: below 50 mM

N#Cc1ccc(/C=C/c2ccc(B(O)O)cc2)cc1 [CSTBA, 4′-cyanostilbene-4-boronic acid]
red shift of emission spectra ([1]; increasing fructose, pH 8.0 buffer/methanol (2:1)): about 25 nm

Cc1ccc2c(ccc[n+]2Cc2ccccc2)c1 [BMQ, N-benzyl-6-methylquinolinium bromide]
λabs (max) [3]: 322 nm | λem (max) [3]: 427 nm | τf (mean lifetime) [3]: 2.59 ns | φf (quantum yield) [3]: 0.045

Cc1ccc2c(ccc[n+]2Cc2ccccc2B(O)O)c1.[Br-] [o-BMQBA, N-(2-boronobenzyl)-6-methylquinolinium bromide]
pKa [2, 9]: 5.08 | pKa [2, 10]: 6.18 | pKa [2, 11]: 6.92 | λabs (max) [3]: 319 nm | λem (max) [3]: 427 nm | τf (mean lifetime) [3]: 4.01 ns | φf (quantum yield) [3]: 0.043 | Kd [4]: 4.7 mM | decrease in fluorescence intensity [5]: ~10% | decrease in fluorescence intensity ([1]; 60 mM fructose, pH 7.5 buffer with 100 mM NaCl): 4 fold | Kd [6]: 100 mM

COc1ccc2c(ccc[n+]2Cc2ccccc2)c1 [BMOQ, N-benzyl-6-methoxyquinolinium bromide]
λem (max) [3]: 453 nm | τf (mean lifetime) [3]: 27.3 ns | φf (quantum yield) [3]: 0.54
